In patent US7696231B2, “Oxindole hydrazide modulators of protein tyrosine phosphatases (PTPs)” (Laboratoires Serono SA, priority 2001, dated 2010):

Tests used:
db/db mice [1] = test: In vivo assay in db/db mice, fasted animals (postprandial glycemia); settings: db/db mice fasted 20 hours, 100 mg/kg per os, blood glucose before and 4 hrs after drug administration
Protocol: (§1) The following assay aims at determining the anti-diabetic effect of the test compounds of formula (I), in vivo in db/db mice using either fasted (to determine the postprandial glycemia right after a predetermined diet), or fed animals, to determine glycemia after a predetermined period of treatment.
(§2) 2 groups of db/db mice, 6 animals each, were formed, in the first one mice were fasted during 20 hours, the second one comprises fed (ad libitum) mice.
Group 1: The fasted animals (6) were administered (per os) a dose of 100 mg/kg of the test compound according to formula (I).
After oral administration with compounds of formula (I), they had access to commercial food (ad libitum). Blood glucose (postprandial glycemia) was determined before and 4 hrs after drug administration.

db/db mice [2] = test: In vivo assay in db/db mice, fed animals (repeated oral administration); settings: 5×50 mg/kg per os once daily during 5 days, blood glucose before and 16 hrs after the last drug administration
Protocol: as §1, §2
Group 2: The fed animals (6) were administered (per os) a dose of 5×50 mg/kg of the test compound according to formula (I).
Mice were orally treated once daily during 5 days with compounds of formula (I). Blood glucose was determined before drug administration and 16 hrs after the last drug administration.

GLEPP-1 = target: T1, GLEPP-1 (Homo sapiens, UniProt Q16827); test: PTP Enzyme Assay (GLEPP-1); assay type: biochemical; settings: catalytic core of human recombinant PTP, DiFMUP substrate at Km, 30 minutes at room temperature; read-out: inhibition (IC50) with regard to GLEPP-1
T1 construct: using the catalytic core of a human recombinant PTP, as an enzyme; made in house
T1 sequence (Q16827 938-1195 limits assumed): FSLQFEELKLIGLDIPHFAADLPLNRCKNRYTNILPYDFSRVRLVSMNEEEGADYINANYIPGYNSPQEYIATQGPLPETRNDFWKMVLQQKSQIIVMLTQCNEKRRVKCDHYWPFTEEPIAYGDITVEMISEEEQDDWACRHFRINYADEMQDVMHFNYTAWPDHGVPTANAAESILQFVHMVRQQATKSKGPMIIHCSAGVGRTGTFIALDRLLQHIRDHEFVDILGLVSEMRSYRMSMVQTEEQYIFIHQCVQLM
Description: (§3) The PTP Enzyme Assay aims at determining the extent of inhibition of the examined PTP (e.g. PTP1B, TC-PTP, PTP-β, DEP-1, LAR, SHP-1, SHP-2, GLEPP-1, PTP-κ, PTP-μ, VHR, hVH5) in the presence of a test compound. The inhibition is illustrated by IC50 values which denote the concentration necessary to achieve an inhibition of 50% of the given PTP.
(§4) The cloning and expression of the catalytic domain of PTPs (e.g. PTP1B, TC-PTP, PTP-β, DEP-1, LAR, SHP-1, SHP-2, GLEPP-1, PTP-κ, PTP-μ, VHR, hVH5) maybe performed as described in J. Biol. Chem. 2000, 275(13), pp 9792-9796.
(§5) Assays were performed in a 96 well plate format, using the catalytic core of a human recombinant PTP, as an enzyme and 6,8-DiFluoro-4-MethylUmbelliferyl Phosphate (DiFMUP, Molecular Probes, D-6567) as a substrate at the Km value which was predetermined for each enzyme. Compounds to be tested were dissolved in 100% DMSO at a concentration of 2 mM. […] The reaction ran for 30 minutes at room temperature before reading the fluorescence intensity on a Perkin-Elmer Victor 2 spectrofluorimeter (excitation at 355 nm, emission at 460 nm, for 0.1 s). The percentage of inhibition relative to the fluorescence observed in the presence of solvent (5% DMSO) alone was determined. The IC50 values for inhibition were determined in triplicates on at least 3 separate occasions.

PTP1B = target: T2, PTP1B (Homo sapiens, UniProt P18031); test: PTP Enzyme Assay (PTP1B); assay type: biochemical; settings: catalytic core of human recombinant PTP, DiFMUP substrate at Km, 30 minutes at room temperature; read-out: inhibition (IC50) with regard to PTP1B
T2 construct: using the catalytic core of a human recombinant PTP, as an enzyme; made in house
T2 sequence (P18031 3-277 limits assumed): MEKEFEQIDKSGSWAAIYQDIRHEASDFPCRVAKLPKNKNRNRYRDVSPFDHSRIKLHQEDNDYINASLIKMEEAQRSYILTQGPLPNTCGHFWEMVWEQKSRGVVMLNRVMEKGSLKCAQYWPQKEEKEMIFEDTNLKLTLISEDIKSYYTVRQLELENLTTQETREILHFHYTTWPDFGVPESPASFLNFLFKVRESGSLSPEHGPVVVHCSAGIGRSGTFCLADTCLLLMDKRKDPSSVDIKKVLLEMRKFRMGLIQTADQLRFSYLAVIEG
Description: as §3, §4, §5

Row | Structure (SMILES) | reduction of blood glucose level induced by food intake (postprandial glycemia) (db/db mice [1]) [%] | reduction of the blood glucose level (db/db mice [2]) [%] | IC50 (GLEPP-1) [nM] | IC50 (PTP1B) [nM]
1 | O=C1Nc2ccc(I)cc2C1=NNC(=O)c1ccc(NC(=O)c2ccccc2)cc1 [Example 50, N-(4-{[2-(5-Iodo-2-oxo-1,2-dihydro-3H-indol-3-ylidene)hydrazino]-carbonyl}phenyl)benzamide] | 30 | – | – | –
2 | O=C1Nc2ccc(I)cc2C1=NNC(=O)c1cccc(Oc2ccccc2)c1 [Example 26, N′-(5-Iodo-2-oxo-1,2-dihydro-3H-indol-3-ylidene)-3-phenoxybenzohydrazide] | – | 17 | – | –
3 | O=C(CCc1ccccc1)Nc1ccc(C(=O)NN=C2C(=O)Nc3ccc(I)cc32)cc1 [Example 1, N-(4-{[2-(5-Iodo-2-oxo-1,2-dihydro-3H-indol-3-ylidene)hydrazino]carbonyl}phenyl)-3-phenylpropanamide] | 30 | 22 | ~496 | 340
4 | O=C(CCc1cccc(O)c1)Nc1ccc(C(=O)NN=C2C(=O)Nc3ccc(I)cc32)cc1 [Example 70, 3-(3-Hydroxyphenyl)-N-(4-{[2-(5-iodo-2-oxo-1,2-dihydro-3H-indol-3-ylidene)hydrazino]carbonyl}phenyl)propanamide] | – | – | – | 770
5 | O=C(COc1ccc([N+](=O)[O-])cc1)NN=C1C(=O)Nc2ccc(I)cc21 [Example 18, N′-(5-Iodo-2-oxo-1,2 dihydro-3H-indol-3-ylidene)-2-(4-nitrophenoxy)acetohydrazide] | 34 | – | – | –
6 | COC(=O)c1ccc(OCC(=O)NN=C2C(=O)Nc3ccc(I)cc32)cc1 [Example 23, Methyl 4-{2-[2-(5-iodo-2-oxo-1,2-dihydro-3H-indol-3-ylidene)hydrazino]-2-oxoethoxy}benzoate] | – | 30 | – | –
